Patent publication US7838493B2, “Acetylcholinesterase (ACHE)-derived peptide as an inducer of granulocytopoiesis, uses and methods thereof” (priority 2004, dated 2010)

System: human CD34+ hematopoietic stem cells
Experiment: Ex vivo expansion of CD34+ cells in liquid culture, flow cytometric immunophenotyping
Format: cell-based
Description: Mean fluorescence intensity (MFI) served as a measure of AChE-R content in analyzed cells. When multiplied by the percent fractions of AChE-R-positive cells, the MFI values reflected the total content of AChE-R in the analyzed blood cell samples. Myeloid markers of maternal blood cells were analyzed by the following combination of monoclonal antibodies: anti-CD15-FITC (Dako, Glostrup Denmark), anti-CD33-PE (BD Bioscience, Palo Alto, Calif.), anti-CD45-PerCP (BD Bioscience, Palo Alto, Calif.) and anti-CD14-APC (Caltag, Burlingame, Calif.). Corresponding MFI values reflected the amount of receptor on the surface of granulocytes and monocytes. Expanded CD34+ cells were analyzed by 4-color flow cytometry with FITC-conjugated anti-CD15 and PE-conjugated anti-CD33, PerCP-conjugated anti-CD34, and APC-conjugated anti-CD38 (all antibodies purchased from BD Bioscience, Palo Alto, Calif.) using a FACSCalibur with CellQuest software (BD Bioscience, Palo Alto, Calif.). Relevant isotype control antibodies were used to detect non-specific background fluorescence. The total number of expanded cells for each lineage was calculated by multiplying their relative proportions by the number of viable cells in each culture.
PBAN (a negative control insect peptide) [Nijholt (2003) id ibid.] were also used for cell expansion. […] […] At 3-day intervals, cultures were supplemented with the same growth factor(s) and cells were counted by trypan blue exclusion and diluted to maintain cultures at concentrations no higher then 100,000 cells/mL [Pick M. et al. (2002) Exp. Hematol. 30:1079]. Cultured cells were injected into NOD/SCID mice at a concentration of 100,000 or 200,000 together with 100,000 unexpanded CD34+ cells per mouse as indicated.
Peptide controls (ASP40 and PBAN) were used to explore the specificity of this response.

[1] = Table 4b, cortisol (1.2 nM), day 14

Question: With `C[C@]12CCC(=O)C=C1CC[C@@H]1[C@@H]2[C@@H](O)C[C@@]2(C)[C@H]1CC[C@]2(O)C(=O)CO` [Cortisol, cortisol] as the compound, how does the “total number of cells” value (CD34+ cells, 2-week incubation, versus control) read?
Answer: Its value is “not”.

Question: What about the Cell expansion index (Table 4a, cultured CD34+ cells, cortisol 1.2 μM, viable cells/ml at day 14 divided by seeded cells (50,000)) of the same compound?
Answer: Its Cell expansion index is 1.55 ± 0.07.

Question: And the Cell expansion index (Table 4b, typical CD34+ culture, cortisol (1.2 nM), day 14)?
Answer: The Cell expansion index was 1.6.

Question: What about the “CD33+ CD15+ Granulocytes” value [1] of the same compound?
Answer: Its value is 28.5 cell counts × 10^3.

Question: And the “CD33+ CD15− Immature myeloids” value [1]?
Answer: The value was 13.0 cell counts × 10^3.

Question: What about the “CD33− CD15+ Mature granulocytes” value [1] of the same compound?
Answer: Its value is 15.4 cell counts × 10^3.

Question: And the “CD34+ CD33+ Committed myeloids” value [1]?
Answer: The value was 10.6 cell counts × 10^3.

Question: What about the “CD34+ CD38+ Committed progenitors” value [1] of the same compound?
Answer: Its value is 11.0 cell counts × 10^3.
